According to patent US8575157B2, “Cyclic inhibitors of 11beta-hydroxysteroid dehydrogenase 1” (Vitae Pharmaceuticals, Inc., priority 2010, dated 2013):
Values joined by “and” are separate entries in the source; they are usually repeats but may differ in a detail not shown here. Equal values may be shown once. Read-outs that look alike come from different tables or passages of the source.

Key:
[1] = fraction unbound in human plasma (equilibrium dialysis), Biological Test Example 5; format: in vitro ADME; conditions: for Biological Test Example 5 (%): fraction unbound in human plasma
[2] = biological target: human recombinant cytochrome P450 3A4 (Homo sapiens (Human), UniProt P08684); assay: CYP3A4 inhibition, Biological Test Example 6; format: in vitro ADME
Sequence of human recombinant cytochrome P450 3A4 (P08684 whole entry): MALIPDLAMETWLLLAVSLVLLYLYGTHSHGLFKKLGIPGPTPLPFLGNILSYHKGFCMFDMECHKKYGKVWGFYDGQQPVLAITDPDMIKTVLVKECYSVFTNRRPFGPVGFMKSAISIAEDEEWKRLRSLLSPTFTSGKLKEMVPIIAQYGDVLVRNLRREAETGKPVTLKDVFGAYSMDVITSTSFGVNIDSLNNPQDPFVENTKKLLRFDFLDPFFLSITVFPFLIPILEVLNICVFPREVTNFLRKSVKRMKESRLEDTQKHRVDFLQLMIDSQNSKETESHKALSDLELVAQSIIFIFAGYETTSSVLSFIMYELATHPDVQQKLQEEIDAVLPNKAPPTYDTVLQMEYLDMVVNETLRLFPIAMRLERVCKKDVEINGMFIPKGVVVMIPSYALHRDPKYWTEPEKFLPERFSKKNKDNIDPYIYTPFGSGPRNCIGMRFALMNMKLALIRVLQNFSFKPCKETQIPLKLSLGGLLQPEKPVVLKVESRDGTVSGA

[3] = biological target: human recombinant cytochrome P450 2C19 (Homo sapiens (Human), UniProt P33261); assay: CYP2C19 inhibition, Biological Test Example 8; format: in vitro ADME; conditions: read-out: Biological Test Example 8 CYP2C19, IC50
Sequence of human recombinant cytochrome P450 2C19 (P33261 whole entry): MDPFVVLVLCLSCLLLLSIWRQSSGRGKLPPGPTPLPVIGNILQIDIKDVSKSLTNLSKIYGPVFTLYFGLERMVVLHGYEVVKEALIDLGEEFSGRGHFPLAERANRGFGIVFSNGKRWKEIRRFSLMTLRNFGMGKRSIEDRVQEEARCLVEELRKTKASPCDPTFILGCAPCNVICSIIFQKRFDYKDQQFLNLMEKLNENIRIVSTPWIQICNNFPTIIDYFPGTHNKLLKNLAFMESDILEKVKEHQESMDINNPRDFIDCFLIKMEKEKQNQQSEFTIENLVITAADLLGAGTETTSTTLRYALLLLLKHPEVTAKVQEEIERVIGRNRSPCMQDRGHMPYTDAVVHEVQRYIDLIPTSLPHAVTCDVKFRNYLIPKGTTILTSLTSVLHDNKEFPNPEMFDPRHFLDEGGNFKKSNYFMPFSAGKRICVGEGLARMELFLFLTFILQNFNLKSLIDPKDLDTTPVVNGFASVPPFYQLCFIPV

human CYP2C9 = human CYP2C9 (Homo sapiens (Human), UniProt P11712); assay: CYP2C9 inhibition (Invitrogen kit, OOMR fluorogenic substrate), Biological Test Example 9; format: in vitro ADME; conditions: read-out: Biological Test Example 9 CYP2C9 IC50
Sequence of human CYP2C9 (P11712 whole entry): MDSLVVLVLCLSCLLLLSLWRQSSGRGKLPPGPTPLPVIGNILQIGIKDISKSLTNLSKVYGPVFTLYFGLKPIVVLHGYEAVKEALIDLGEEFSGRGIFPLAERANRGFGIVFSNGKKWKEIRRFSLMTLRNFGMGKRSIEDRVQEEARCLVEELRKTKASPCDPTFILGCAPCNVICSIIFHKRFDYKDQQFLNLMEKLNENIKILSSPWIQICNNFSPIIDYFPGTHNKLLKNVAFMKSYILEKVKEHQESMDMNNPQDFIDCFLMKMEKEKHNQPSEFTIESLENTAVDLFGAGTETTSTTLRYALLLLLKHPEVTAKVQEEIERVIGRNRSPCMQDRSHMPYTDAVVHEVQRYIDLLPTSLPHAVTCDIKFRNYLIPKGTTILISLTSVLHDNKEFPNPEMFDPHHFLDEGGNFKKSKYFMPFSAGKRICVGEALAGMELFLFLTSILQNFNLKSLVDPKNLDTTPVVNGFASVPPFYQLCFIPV

[4] = biological target: human recombinant cytochrome P450 2C9 (Homo sapiens (Human), UniProt P11712); assay: CYP2C9 inhibition ([O-methyl-14C]-Naproxen), Biological Test Example 7; format: in vitro ADME
Sequence of human recombinant cytochrome P450 2C9 (P11712 whole entry): as above

11β-HSD1 [5] = biological target: T1, 11β-HSD1 (Homo sapiens (Human), UniProt P28845); format: biochemical; conditions: human liver microsomes, 100% indicates no inhibition, zero or below zero indicates complete inhibition
T1 sequence (P28845 whole entry): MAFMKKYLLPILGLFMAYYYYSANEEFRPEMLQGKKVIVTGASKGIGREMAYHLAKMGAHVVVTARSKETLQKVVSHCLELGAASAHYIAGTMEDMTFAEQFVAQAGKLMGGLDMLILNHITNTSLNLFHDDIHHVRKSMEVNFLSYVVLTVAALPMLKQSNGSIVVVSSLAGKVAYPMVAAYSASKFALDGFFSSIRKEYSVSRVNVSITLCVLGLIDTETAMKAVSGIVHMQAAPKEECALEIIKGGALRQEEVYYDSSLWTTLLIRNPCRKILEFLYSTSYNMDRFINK

11β-HSD1 [6] = biological target: T1, 11β-HSD1
[7] = slurry experiment on stability of the crystal form (XRPD); conditions: 30 minutes
[8] = human recombinant CYP2C19, [N-methyl-14C]-Diazepam

C[C@@H](c1ccc(-c2ccc(=O)n(C)c2)cc1)N1CC[C@](CC(C)(C)NS(C)(=O)=O)(c2ccccc2)OC1=O [Example 11, N-(2-methyl-1-((S)-3-((S)-1-(4-(1-methyl-6-oxo-1,6-dihydropyridin-3-yl)phenyl)ethyl)-2-oxo-6-phenyl-1,3-oxazinan-6-yl)propan-2-yl)methanesulfonamide]
Biological Test Example 5 (fraction unbound in human plasma) [1]: 0.7% | IC50 ([2]; human recombinant CYP3A4): 14.1 µM | IC50 [3, 8]: […]

C[C@@H](c1ccc(-c2ccc(=O)n(C)c2)cc1)N1CC[C@](CC(C)(C)N(C)S(C)(=O)=O)(c2ccccc2)OC1=O [Example 12, N-methyl-N-(2-methyl-1-((S)-3-((S)-1-(4-(1-methyl-6-oxo-1,6-dihydropyridin-3-yl)phenyl)ethyl)-2-oxo-6-phenyl-1,3-oxazinan-6-yl)propan-2-yl)methanesulfonamide]
IC50 (human CYP2C9; Invitrogen kit, OOMR fluorogenic substrate): 2.5 µM | Biological Test Example 5 (fraction unbound in human plasma) [1]: 0.4% | IC50 ([2]; human recombinant CYP3A4): 4.9 µM | IC50 [3, 8]: […] | IC50 ([4]; human recombinant CYP2C9): […]

C[C@@H](c1ccc(-c2ccn(CC(F)(F)F)c(=O)c2)cc1)N1CC[C@](CC(C)(C)O)(c2ccccc2)OC1=O [Example 66, (S)-6-(2-hydroxy-2-methylpropyl)-3-((S)-1-(4-(2-oxo-1-(2,2,2-trifluoroethyl)-1,2-dihydropyridin-4-yl)phenyl)ethyl)-6-phenyl-1,3-oxazinan-2-one]
Biological Test Example 5 (%) [1]: 5.5%

C[C@@H](c1ccc(-c2ccc(=O)n(CC3CC3)c2)cc1)N1CC[C@](CC(C)(C)O)(c2ccccc2)OC1=O [Example 76, 3-{(S)-1-[4-(1-Cyclopropylmethyl-6-oxo-1,6-dihydro-pyridin-3-yl)-phenyl]-ethyl}-(S)-6-(2-hydroxy-2-methyl-propyl)-6-phenyl-[1,3]oxazinan-2-one]
Average % control inhibition at 100 nM (11β-HSD1 [5]): 17 % control

CC[C@@H](c1ccc(-c2ccc(=O)n(CC)c2)cc1)N1CC[C@](CC(C)(C)O)(c2ccccc2)OC1=O [Example 52, (S)-3-((S)-1-(4-(1-ethyl-6-oxo-1,6-dihydropyridin-3-yl)phenyl)propyl)-6-(2-hydroxy-2-methylpropyl)-6-phenyl-1,3-oxazinan-2-one]
Biological Test Example 5 (%) [1]: 9.0%

C[C@@H](c1ccc(-c2ccn(CC(C)(C)CO)c(=O)c2)cc1)N1CC[C@](CC(C)(C)O)(c2ccccc2)OC1=O [Example 90, 3-((S)-1-{4-[1-(3-Hydroxy-2,2-dimethyl-propyl)-2-oxo-1,2-dihydro-pyridin-4-yl]-phenyl}-ethyl)-(S)-6-(2-hydroxy-2-methyl-propyl)-6-phenyl-[1,3]oxazinan-2-one]
Average % control inhibition at 100 nM (11β-HSD1 [5]): 4 % control

COCC(C)Cn1ccc(-c2ccc([C@H](C)N3CC[C@](CC(C)(C)O)(c4ccccc4)OC3=O)cc2)cc1=O (stereo partly drawn) [Example 81, (S)-6-(2-Hydroxy-2-methyl-propyl)-3-((S)-1-{4-[1-(3-methoxy-2-methyl-propyl)-2-oxo-1,2-dihydro-pyridin-4-yl]-phenyl}-ethyl)-6-phenyl-[1,3]oxazinan-2-one]
Average % control inhibition at 100 nM (11β-HSD1 [5]): 11 % control

C[C@@H](c1ccc(-c2cc(=O)n(C)cc2F)cc1)N1CC[C@](CC(C)(C)O)(c2ccccc2)OC1=O [Example 79, 3-{(S)-1-[4-(5-Fluoro-1-methyl-2-oxo-1,2-dihydro-pyridin-4-yl)-phenyl]-ethyl}-(S)-6-(2-hydroxy-2-methyl-propyl)-6-phenyl-[1,3]oxazinan-2-one]
Average % control inhibition at 100 nM (11β-HSD1 [5]): 15 % control | IC50 [2]: > 50 µM | IC50 [3]: > 50 µM | IC50 [4]: > 50 µM

COC[C@]1(c2ccccc2)CCN([C@@H](C)c2ccc(-c3ccn(C)c(=O)c3)cc2)C(=O)O1 [Example 78, (R)-6-Methoxymethyl-3-{(S)-1-[4-(1-methyl-2-oxo-1,2-dihydro-pyridin-4-yl)-phenyl]-ethyl}-6-phenyl-[1,3]oxazinan-2-one]
Average % control inhibition at 100 nM (11β-HSD1 [5]): 58 % control

C[C@@H](c1ccc(-c2ccn(C3CC3)c(=O)c2)cc1)N1CCC(CC(C)(C)C)(CC(C)(C)O)OC1=O (single isomer, unassigned) [Example 94 Isomer 2]
Average % inhibition at 100 nM (11β-HSD1 [6]; Biological Test Example 1, listed as EXAMPLE 94 Isomer 2): 8.2%

COC(C)(C)Cn1ccc(-c2ccc([C@H](C)N3CC[C@](CC(C)(C)O)(c4ccccc4)OC3=O)cc2)cc1=O [Example 83, (S)-6-(2-Hydroxy-2-methyl-propyl)-3-(1-{4-[1-(2-methoxy-2-methyl-propyl)-2-oxo-1,2-dihydro-pyridin-4-yl]-phenyl}-ethyl)-6-phenyl-[1,3]oxazinan-2-one]
Average % control inhibition at 100 nM (11β-HSD1 [5]): 54 % control

C[C@@H](c1ccc(-c2ccn(C3CC3)c(=O)c2)cc1)N1CCC(CC(C)(C)O)(C2CCOCC2)OC1=O (single isomer, unassigned) [Example 91 Isomer 2]
Average % inhibition at 100 nM (11β-HSD1 [6]; Biological Test Example 1): 13.8%

C[C@@H](c1ccc(-c2ccn(C3CC3)c(=O)c2)cc1)N1CCC(CC(C)(C)O)(C2CC(F)(F)C2)OC1=O (single isomer, unassigned) [Example 95 Isomer 2]
Average % inhibition at 100 nM (11β-HSD1 [6]; Biological Test Example 1): 8.0%

CC[C@@H](c1ccc(-c2ccc(=O)n(C)c2)cc1)N1CC[C@](CC(C)(C)O)(c2ccccc2)OC1=O [Example 54, (S)-6-(2-hydroxy-2-methylpropyl)-3-((S)-1-(4-(1-methyl-6-oxo-1,6-dihydropyridin-3-yl)phenyl)propyl)-6-phenyl-1,3-oxazinan-2-one]
Biological Test Example 5 (%) [1]: 9.1% | IC50 [2]: > 50 µM | IC50 [4]: > 50 µM

C[C@@H](c1ccc(-c2ccn(C3CC3)c(=O)c2)cc1)N1CCC(CC(C)(C)C)(CC(C)(C)O)OC1=O (single isomer, unassigned) [Example 94 Isomer 1]
Average % inhibition at 100 nM (11β-HSD1 [6]; Biological Test Example 1, listed as EXAMPLE 94 Isomer 1): 41.9%

C[C@@H](c1ccc(-c2ccn(CC(C)(C)O)c(=O)c2)cc1)N1CC[C@](CC(C)(C)O)(c2ccccc2)OC1=O [Example 80, (S)-6-(2-Hydroxy-2-methyl-propyl)-3-((S)-1-{4-[1-(2-hydroxy-2-methyl-propyl)-2-oxo-1,2-dihydro-pyridin-4-yl]-phenyl}-ethyl)-6-phenyl-[1,3]oxazinan-2-one]
Average % control inhibition at 100 nM (11β-HSD1 [5]): 37 % control | IC50 [2]: > 50 µM | IC50 [4]: > 50 µM

CC[C@@H](c1ccc(-c2ccn(C)c(=O)c2)cc1)N1CC[C@](CC(C)(C)O)(c2ccccc2)OC1=O [Example 55, (S)-6-(2-hydroxy-2-methylpropyl)-3-((S)-1-(4-(1-methyl-2-oxo-1,2-dihydropyridin-4-yl)phenyl)propyl)-6-phenyl-1,3-oxazinan-2-one]
Biological Test Example 5 (%) [1]: 7.1%

C[C@@H](c1ccc(-c2ccn(C3CC3)c(=O)c2)cc1)N1CC[C@](CC(C)(C)O)(c2ccccc2)OC1=O [anhydrous form of Example 75, 3-{(S)-1-[4-(1-Cyclopropyl-2-oxo-1,2-dihydro-pyridin-4-yl)-phenyl]-ethyl}-(S)-6-(2-hydroxy-2-methyl-propyl)-6-phenyl-[1,3]oxazinan-2-one]
remaining in the anhydrous state during the measurement by XRPD [7]: did not remain in the anhydrous state

C[C@@H](c1ccc(-c2ccn(C)c(=O)c2)cc1)N1CC[C@](CC(C)(C)O)(c2ccccc2)OC1=O [anhydrous form of Example 48, (S)-6-(2-hydroxy-2-methylpropyl)-3-((S)-1-(4-(1-methyl-2-oxo-1,2-dihydropyridin-4-yl)phenyl)ethyl)-6-phenyl-1,3-oxazinan-2-one]
remaining in the anhydrous state during the measurement by XRPD [7]: did not remain in the anhydrous state

C[C@@H](c1ccc(-c2ccn(C)c(=O)c2)cc1)N1CC[C@](CC(C)(C)O)(c2ccccc2)OC1=O [Example 48, (S)-6-(2-hydroxy-2-methylpropyl)-3-((S)-1-(4-(1-methyl-2-oxo-1,2-dihydropyridin-4-yl)phenyl)ethyl)-6-phenyl-1,3-oxazinan-2-one]
IC50 (human CYP2C9): 30 µM | Biological Test Example 5 (%) [1]: 8.7% | IC50 [2]: > 50 µM | IC50 [3]: > 50 µM | IC50 [4]: > 50 µM
